Test results published in ChEMBL document CHEMBL1201862, “PubChem BioAssay data set” (2004).
Calls of active or inactive are those of the source.

Tests used:
[1] = microbe, parasite or virus in culture; type: functional; conditions: Mycobacterium tuberculosis
[2] = viability of uninfected HEp-2 cells – cell-based, HTS, cytotoxicity control for RSV inhibitor project, dose response (AID 2410); type: functional; conditions: human respiratory syncytial virus
[3] = biological target: T1, Ubiquitin-conjugating enzyme E2 N (Homo sapiens, UniProt P61088); type: functional;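 further: Dose-response confirmation in a TR-FRET assay detecting UBC13-driven polyubiquitin chain formation, inhibition measured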
T1 sequence (P61088 whole entry): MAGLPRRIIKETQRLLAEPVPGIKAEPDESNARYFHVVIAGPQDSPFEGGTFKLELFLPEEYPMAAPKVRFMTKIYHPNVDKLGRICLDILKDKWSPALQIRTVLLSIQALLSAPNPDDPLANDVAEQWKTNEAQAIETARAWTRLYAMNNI

[4] = Luminescence Cell-Based Dose Retest to Confirm Inhibitors of Cancer Stem Cells. [Related pubchem assays (depositor defined):AID2717, AID2721]; type: functional; conditions: Homo sapiens
[5] = biological target: Dual specificity tyrosine-phosphorylation-regulated kinase 1A (Rattus norvegicus, UniProt Q63470); type: biochemical, Homo sapiens
Caspase-6 = biological target: T2, Caspase-6 (Homo sapiens, UniProt P55212); assay: inhibition of CASP6 peptide cleavage – biochemical, VEID-R110 fluorescence, cherry-pick, dose response (AID 720632)
T2 sequence (P55212 whole entry): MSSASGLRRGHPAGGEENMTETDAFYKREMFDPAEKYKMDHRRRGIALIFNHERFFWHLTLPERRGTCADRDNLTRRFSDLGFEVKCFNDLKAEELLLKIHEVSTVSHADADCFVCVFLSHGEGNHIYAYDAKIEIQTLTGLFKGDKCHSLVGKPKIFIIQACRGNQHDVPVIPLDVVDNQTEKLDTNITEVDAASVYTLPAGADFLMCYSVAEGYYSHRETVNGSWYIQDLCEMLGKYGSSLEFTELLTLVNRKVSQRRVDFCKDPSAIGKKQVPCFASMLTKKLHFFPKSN

[6] = biological target: T3, Carboxy-terminal domain RNA polymerase II polypeptide A small phosphatase 1 (Homo sapiens, UniProt Q9GZU7); assay: CTDSP1 inhibitors, concentration-response, biochemical, absorbance readout, ultra-high-throughput screen actives (AID 540297); type: functional
T3 sequence (Q9GZU7 whole entry): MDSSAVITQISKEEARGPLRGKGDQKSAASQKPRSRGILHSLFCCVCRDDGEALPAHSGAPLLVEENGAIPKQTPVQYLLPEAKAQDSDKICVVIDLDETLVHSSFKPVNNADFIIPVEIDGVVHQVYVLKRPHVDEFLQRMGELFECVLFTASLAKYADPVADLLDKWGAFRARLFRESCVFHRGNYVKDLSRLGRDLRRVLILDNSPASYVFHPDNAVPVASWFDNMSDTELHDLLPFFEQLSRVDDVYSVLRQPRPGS

[7] = DRD fibroblast viability loss – cell-based, non-viral oncogenic, luminescence, dose response (AID 1934); type: functional; conditions: Homo sapiens
[8] = viability of HCT116 lacking mutant beta-catenin – cell-based, human colon tumor, dose response (AID 1045); type: functional;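 further: HCT116 colon tumor cells with beta catenin knocked out; cells exposed to compound for 60 hours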
[9] = viability of PTEN-deleted HCT116 cells – cell-based, HCT116 PTEN knockout, dose response (AID 1047); type: functional;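 further: HCT116 colon tumor cells with PTEN knocked out; cells exposed to compound for 60 hours before readout; potency for loss of cell viability measured by luminescence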
BJ [10] = assay: cells; type: functional, cell-based; conditions: Homo sapiens
BJ [11] = assay: BJ-TERT-LT-ST fibroblast viability loss – cell-based, RAS-independent, luminescence, dose response (AID 1935); type: functional; conditions: Homo sapiens;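 further: BJ fibroblasts immortalized with TERT plus LT and ST oncogenes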
BJ [12] = assay: BJ-TERT fibroblast viability loss – cell-based, RAS-independent, luminescence, dose response (AID 1933); type: functional; conditions: Homo sapiens
[13] = luciferase reporter signal suppression in cells – H4 neuroglioma cells, luminescence, dose response (AID 1990); type: functional, cell-based
[14] = Luminescence Cell-Based Dose Response HTS to Identify Inhibitors of 5'UTR Stem-Loop Driven Prion Protein mRNA Translation in H4 Neuroglioblastoma Cells. [Related pubchem assays: 1827 (Project Summary), 1813 (Primary HTS)]; type: functional
[15] = alpha-synuclein stem-loop luciferase translation blockers – H4 neuroglioma cells, luminescence, confirmation (AID 1988); type: functional, cell-based
[16] = HEK-293T viability loss after treatment – luminescence, T-cell screen hits, cytotoxicity control for TCR NF-kB inhibitor project, dose response (AID 489026); type: functional, cell-based;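 further: cells exposed to compound about 14 hours before the viability readout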
cells = type: functional
[17] = blockers of HIV-1 ZM109 envelope-driven cell-cell fusion – HeLa effector, CEM target cells, luciferase, cherry-pick, dose response (AID 652058); type: functional, cell-based;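 further: luciferase signal from HIV-1 Env mediated cell-cell fusion of effector and target cells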
[18] = HIV-1 AD8 envelope cell-cell fusion blockers – cherry-pick, dose response (AID 652062); type: functional, cell-based;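 further: luciferase signal from cell-cell fusion driven by HIV-1 clade B AD8 Env; potency is for inhibitors of fusion seen as a drop in luminescence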
[19] = blockers of HIV-1 envelope-mediated cell-cell fusion – cherry-pick, dose response (AID 652057); type: functional, cell-based
[20] = off-target signal loss in HeLa-CEM21 co-culture – HeLa F-luc CTL cells, cherry-picked, counter-screen for HIV-1 Env fusion inhibitor project, dose response (AID 652040); type: functional, cell-based;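 further: potency for signal decrease marking cytotoxic or nonspecific inhibition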
[21] = biological target: T4, Long-chain-fatty-acid--AMP ligase FadD28 (Mycobacterium tuberculosis, UniProt P9WQ59); assay: Fluorescence polarization aasay to screen for inhibitors that compete for the binding of FadD28 to a bisubstrate Measured in Biochemical System Using Plate Reader - 2147-01_Inhibitor_Dose_CherryPick_Activity.; type: functional, Mycobacterium tuberculosis H37Rv
T4 sequence (P9WQ59 whole entry): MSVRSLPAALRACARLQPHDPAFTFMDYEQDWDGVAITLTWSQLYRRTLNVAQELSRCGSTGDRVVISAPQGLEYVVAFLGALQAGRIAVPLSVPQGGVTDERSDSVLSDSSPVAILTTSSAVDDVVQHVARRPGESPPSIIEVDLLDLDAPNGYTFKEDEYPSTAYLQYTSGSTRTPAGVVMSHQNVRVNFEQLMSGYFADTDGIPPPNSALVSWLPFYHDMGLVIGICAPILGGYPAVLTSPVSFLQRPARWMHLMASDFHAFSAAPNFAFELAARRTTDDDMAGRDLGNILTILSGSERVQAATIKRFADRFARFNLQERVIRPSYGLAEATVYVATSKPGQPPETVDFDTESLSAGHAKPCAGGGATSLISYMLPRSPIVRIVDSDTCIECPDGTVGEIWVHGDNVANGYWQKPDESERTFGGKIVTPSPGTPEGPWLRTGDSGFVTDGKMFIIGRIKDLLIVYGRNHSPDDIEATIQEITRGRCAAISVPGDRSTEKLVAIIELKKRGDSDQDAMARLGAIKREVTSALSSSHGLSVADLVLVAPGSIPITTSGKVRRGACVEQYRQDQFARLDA

For `CCOC(=O)c1[nH]c2ccc(F)cc2c1NC(=O)CN1CCN(C/C=C/c2ccccc2)CC1`, the CC50 [1] was 22.4 µM (active) and the CC50 [2] was 8.01 µM (active).

In the case of `COc1ccc(C2=Nn3c(nnc3-c3ccccc3F)SC2)cc1OC1CCCC1`, the CC50 [1] is reported as 9.04 µM (active), the IC50 [3] is reported as > 20 µM (inactive) and the AC50 [4] is reported as 6.06 µM (active).

In the case of `O=C(CC(SCCO)c1ccc2c(c1)OCO2)c1ccco1` (stereo not drawn), the AC50 [5] is reported as 0.563 µM (active).

With `O=C(O)C1C2C=CC(C2)C1C(=O)Nc1ccccc1Br` (stereo not drawn) the AC50 (Caspase-6) was 6.78 µM (active) and the IC50 [6] was 16.7 µM (active).

In the case of `CCO/C=C1/C(=O)N(c2ccccc2OC)C(=O)c2ccccc21`, the AC50 (Caspase-6) is reported as 13.9 µM (active).

In the case of `C[C@@]1(CO)[C@H](O)CC[C@@]2(C)[C@H]1CC[C@H]1C[C@@H]3C[C@@]12CC[C@]3(O)CO` [APHIDICOLIN], the EC50 [7] is reported as > 150 µM (inconclusive), the EC50 [8] is reported as 1.73 µM (active) and the EC50 [9] is reported as 0.839 µM (active). The EC50 (BJ [10]) was 28.6 µM (active), the EC50 (BJ [11]) was > 150 µM (not active) and the EC50 (BJ [12]) was 38.6 µM (active).

For `CCN1C(=O)/C(=C\N2CCN(c3ccc(F)cc3)CC2)SC1=S`, the EC50 [13] was 16.1 µM (active), the EC50 [7] was > 150 µM (not active) and the EC50 [14] was > 120 µM (not active). For the same molecule, the EC50 (BJ [10]) was > 150 µM (not active), the EC50 (BJ [11]) was > 150 µM (not active) and the EC50 [15] was > 120 µM (not active). For the same molecule, the EC50 (BJ [12]) was 81.2 µM (active).

In the case of `Cc1cccc(N2CCN(C(=O)c3ccc(S(=O)(=O)N(C)c4ccccc4)cc3)CC2)c1C`, the IC50 [16] is reported as > 80 µM (inactive) and the IC50 [6] is reported as 12 µM (active).

With `O=C(N/N=C/c1ccc[nH]1)c1ccncc1` the IC50 (cells) was 2.28 µM (active).

For `C=C1CCN([C@H](C(=O)OCc2cccc(C)c2)C(C)C)S(=O)(=O)c2ccccc21`, the AC50 [17] was 3.64 µM (active), the AC50 [18] was 4.76 µM (active) and the AC50 [19] was 1.99 µM (active). For the same molecule, the AC50 [20] was 5.21 µM (active).

In the case of `CCNc1ncnc2c1cnn2C1CCCO1` (stereo not drawn), the AC50 [17] is reported as 13.5 µM (active).

In the case of `O=C(NCCCc1nc2ccccc2[nH]1)c1ccco1`, the AC50 [17] is reported as 1.61 µM (active) and the AC50 [19] is reported as 48.8 µM (active).

With `Cc1ccc(NC(=O)Nc2sc(=S)n(C)c2C)cc1` the AC50 [21] was > 100 µM (inactive).
